One assay has as its target T1, MLK-3 (Homo sapiens, UniProt Q16584).
T1 construct: A full length cDNA of human MLK-3, MLK-2, or mouse DLK; expressed in transfected cells; host or cells: Cos7
In words: JNK activity (immunoprecipitation/kinase assay) in Cos7 cells overexpressing MLK-3 and HA-JNK1. It is filed as cell-based. The following applies: COS-7. How it is done:
Cos7 cells were plated at 80% confluency and transfected with 2 ug each of cDNA constructs using lipofectamine as recommended by the provider (Gibco BRL, Gaithersburg, MD). A full length cDNA of human MLK-3, MLK-2, or mouse DLK or a partial human MLK-1 as described above, and a full length Hemagluttinin A-tagged human JNK1, kindly provided by J. Silvio Gutkind (NIH, Bethesda, MD), were subcloned into the pcDNA3 vector (Invitrogen, San Diego, CA). […] JNK activity from the lysate was assayed by an immunoprecipitation/kinase assay as described below.
Lysate from Cos 7 cells was measured for protein concentration using the Micro BCA kit from Pierce (Rockford, IL) and equal amounts of protein were immunoprecipitated with the HA antibody for 1 hr at 4°C. Immunoprecipitates were pelleted by centrifugation in a microfuge centrifuge for 20 sec, resuspended in Triton buffer, washed by centrifugation 2 more times, followed by a final wash in Kinase buffer (20 mM Hepes pH 7.4,20 mM MgCl2, 2 mM dithiothreitol, 0.1 mM sodium vanadate). The immunoprecipitate was resuspended in kinase buffer containing 1 µM ATP and 5 µCi [γ-^32P]ATP and substrate (1 µg/sample of AP-1 ) and incubated for 15 min at 30°C. […] Samples were heated to 80°C for 5 min and loaded onto 10% SDS-polyacrylamide gels. Proteins were separated by electrophoresis. The gel was dried and quantitation of radioactivity in the AP-1 substrate was performed on a Molecular Dynamics Phosphorimager (Sunnyvale, Ca.).
To determine whether inhibition of the JNK pathway regulated by these kinases correlated with neurotrophic compounds, we evaluated the effect of compounds on JNK activity in Cos7 cells overexpressing HA-JNK and MLK3. After a 48 hr transfection period, the cells were incubated with compounds at 500 nM for 2hr followed by cellular lysis. Lysate was immunoprecipitated and kinase activity measured as previously described. […]

Assay [1] deals with sympathetic ganglion neurons (SG). In words: Survival of chick embryonic sympathetic ganglion neurons. It is filed as cell-based. How it is done:
Paravertebral sympathetic ganglia (SG; embryonal day 12 (E12)), dorsal root ganglia (DRG;E9), and ciliary ganglia (CG;E8) were dissected from chick embryos at the indicated embryonic day as described in Lindsay, et al., Dev. Biol., 1985, 112, 319-328, which is incorporated herein by reference in its entirety. After trypsinization and dissociation, the nerve cell suspensions were plated onto polyomithine-laminin-coated culture dishes in Ham's F14 culture medium, supplemented with 10% horse serum. Immediately after plating, survival factors were added at the following concentrations: Nerve growth factor (NGF), 20 ng/ml; ciliary neutrophic factor (CNTF), 10 ng/ml. The cultures were maintained at 37° and 5% CO2 in a humidified environment.
Neurons were plated in 35 mm culture dishes with grids (Nunc). Selected areas of each dish comprising together about 10% of the surface scanned for the presence of phase bright cells immediately after plating and again after 48 h to assess survival percentages. Cell survival was confirmed by vital staining with trypan blue (not shown).

The test system of assay [2] is intact embryonic dorsal root ganglia. In words: Neurite outgrowth from intact dorsal root ganglia. Format: cell-based, chick. The following applies: 250 nM Compound III-3 or 20 ng/ml NGF; 48 h. How it is done: Ganglia were placed in 96 well plates previously coated with poly-1-omithine and laminin (5 µg each/ml phosphate buffered saline) in serum-free N2 medium (Bottenstein, et al., Proc. Natl. Acad. Sci. USA, 1979, 76, 514-517, which is incorporated herein by reference in its entirety) containing 0.05% bovine serum albumin (BSA) and maintained for 48 h at 37° and 5% CO2 in a humidified environment. Treated ganglia received either 250 nM Compound III-3 or 20 ng/ml NGF 2 h after plating.

The subject of another assay is IL-1. In words: Induction of IL-1 by LPS in THP-1 cells (ELISA). Format: cell-based. How it is done: (§1) THP-1 cells were grown in RPMI 1640 medium supplemented with 10% fetal bovine serum. LPS (E.coli serotype 0111.B4, TCA extracted) was purchased from Sigma and dissolved in PBS. ELISA kits for assaying IL-1 and TNF-α were purchased from Boerhinger-Mannheim and assays on THP-1 culture medium were performed as directed by the manufacturer. Standard curves according to directions were obtained with each assay.
(§2) Experiments were performed in 12 well culture plates with either 1 or 2 ml of THP-1 cells at 4 X 10^5 cells/ml. IL-1 and TNF-α were induced by the addition of LPS to the culture medium and the medium collected at various times thereafter for cytokine assay. Cells were removed by centrifugation and the supernatants frozen at -70°C until assay. To minimize costs experiments were performed in duplicate cultures and the duplicate supernatants were pooled after centrifugation. Each pooled supernatant was assayed in duplicate. Stock solutions of indolo- and fused pyrrolocarbazoles in 100% DMSO were diluted to the desired concentrations in either medium containing 10% fetal bovine serum or in medium containing 0.5 mg/ml BSA. Unless otherwise stated, compounds were added to the THP-1 cells 1 hr prior to the addition of LPS.
(ELISA stands for enzyme-linked immunosorbent assay.)

Another assay relates to IL-2. Put plainly: Induction of IL-2 in Jurkat cells by anti CD3 and anti CD28 antibodies (ELISA). Format: cell-based. The following applies: Homo sapiens. How it is done: Jurkat cells were grown in RPMI 1640 medium supplemented with 10% fetal bovine serum. TNF-α was from Promega and anti CD3 and anti CD28 antibodies were from Pharmigen. Jurkat experiments were done in 200 µl in a 96 well plate. IL-2 was measured with an ELISA kit purchased from Boehringer Mannheim. The antibodies to CD3 and CD28 were allowed to bind to the plastic of the 96 well plate (18 hr in PBS) prior to addition of the Jurkat Cells. Cells were treated with compounds 1 hr prior to adding to the antibody coated plate. Antibodies to CD3 and CD28 were used to activate the T cell receptor and induce IL-2. I1-2 was released from the Jurkat cells between 6 hr and 24 hr after initiation of induction (Fig. 23A). No IL-2 was made constitutively (Fig. 23A CNT). The effect of Compound III-3 (1 hr treatment with Compound III-3 prior to induction) on IL-2 induction was next assessed (Fig. 23B). A Compound III-3 concentration of 500 nM inhibited IL-2 induction by greater than 80% (Fig. 23B).

The next assay relates to TNF-α. In words: Induction of TNF-α by LPS in THP-1 cells (ELISA). It is filed as cell-based. The following applies: Homo sapiens. How it is done: as §1, §2

Read-outs that look alike come from different tables or passages of the source.

T1 sequence (Q16584 whole entry): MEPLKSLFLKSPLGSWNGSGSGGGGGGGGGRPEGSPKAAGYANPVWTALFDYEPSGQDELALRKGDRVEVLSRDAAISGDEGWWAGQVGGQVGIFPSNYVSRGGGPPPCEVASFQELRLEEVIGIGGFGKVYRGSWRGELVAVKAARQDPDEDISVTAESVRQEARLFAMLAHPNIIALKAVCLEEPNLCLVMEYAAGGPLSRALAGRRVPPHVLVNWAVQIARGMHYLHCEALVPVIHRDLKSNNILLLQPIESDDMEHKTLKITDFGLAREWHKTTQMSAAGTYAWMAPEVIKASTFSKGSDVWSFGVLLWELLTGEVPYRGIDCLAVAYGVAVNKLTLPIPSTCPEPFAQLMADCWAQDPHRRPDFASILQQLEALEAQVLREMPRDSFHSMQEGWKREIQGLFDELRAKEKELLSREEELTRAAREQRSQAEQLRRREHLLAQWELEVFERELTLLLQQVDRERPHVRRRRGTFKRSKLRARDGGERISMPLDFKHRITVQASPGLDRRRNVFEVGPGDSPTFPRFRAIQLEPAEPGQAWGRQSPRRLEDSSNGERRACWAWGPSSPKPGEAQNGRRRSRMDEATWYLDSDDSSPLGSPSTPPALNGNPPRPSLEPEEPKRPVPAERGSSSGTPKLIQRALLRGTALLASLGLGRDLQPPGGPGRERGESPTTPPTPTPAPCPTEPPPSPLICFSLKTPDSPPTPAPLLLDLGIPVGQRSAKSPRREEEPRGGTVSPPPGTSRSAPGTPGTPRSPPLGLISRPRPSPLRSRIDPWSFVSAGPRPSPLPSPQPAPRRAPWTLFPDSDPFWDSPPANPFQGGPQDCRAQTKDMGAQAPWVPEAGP

A word on the IC50: it is the concentration needed to halve the response being measured. In the case of `CCSCc1ccc2c(c1)c1c3c(c4c5cc(CSCC)ccc5n5c4c1n2C1CC(O)(C(=O)OC)C5(C)O1)CNC3=O` (stereo not shown) [III-3], the inhibition at 0.5 µM on MLK-3 (500 nM for 2hr, control is JNK activity in the presence of DMSO, read-out: % Inhibition of JNK Activity (average) MLK3 in Cos7 cells) was 94%; at MLK-3 (read-out: Overexpressed MLK3 in Cos 7 Cells JNK % inh. 500 nM), 94%; with IL-2 (Jurkat, 500 nM, 1 hr treatment prior to induction (Fig. 23B)), > 80%. For the same compound, the “concentration at which the survival effect reached a plateau” value in assay [1] (10% serum (Fig. 16)) is listed as “around 1 µM”. The same compound registered an SG neurons alive in assay [1] (after 48 h, Compound III-3 1 µM, NGF 20 ng/ml, 10% serum) of 94%. Also, the SG survival in assay [1] (after four days) is given as 83%. In addition, the “neurite outgrowth from intact dorsal root ganglia” value in assay [2] is “Neurites grew”. Further, the half-maximal inhibitory concentration (IC50) came to 267 nM in the assay on IL-1 (Homo sapiens, THP-1, THP-1 cells, medium containing 10% fetal bovine serum, read-out: IC50 inhibition of the induction of IL-1); 23 nM in the assay with IL-1 (Homo sapiens, THP-1, THP-1 cells, serum-free medium (500 µg/ml BSA), cytokine not named, read-out: IC50 in serum-free medium); 269 nM with IL-1 (THP-1 cells, medium containing 10% fetal bovine serum, read-out: IC50 inhibition of the induction of IL-1); 139 nM in the assay on IL-2 (Jurkat cells (Fig. 23C)); 29 nM in the assay on TNF-α (THP-1, LPS 2 µg/ml, serum-free medium, read-out: THP-1 Cells TNF-α IC50); 139 nM with TNF-α (THP-1 cells, medium containing 10% fetal bovine serum, read-out: IC50 inhibition of the induction of TNF-α).

The values above are taken from patent publication EP1105728B1, “MODULATING MULTIPLE LINEAGE KINASE PROTEINS” (CEPHALON, INC., priority 1998, dated 2000).
